{
  "source": "patent US10273313B2",
  "about": "“Multimeric mannosides, a process for preparing the same and their uses as a drug” (CENTRE NATIONAL DE LA RECHERCHE SCIENTIFIQUE, priority 2012, dated 2019)",
  "key": {"[1]": {"tested_on": "type-1 piliated clinical E. coli isolate UTI89", "experiment": "Haemagglutination inhibition assay (HIA), guinea pig erythrocytes", "format": "cell-based, Escherichia coli", "conditions": "for MIC: read-out: Minimal inhibitory concentration (MIC) on haemagglutination", "description": "Haemagglutination is observed as the red blood cells being held in suspension through the formation of a space-filling cross-linked network with the fimbriated bacteria.\nThe UIT89 clinical isolate was grown statically 37° C. for 48 hours in LB medium and analysed for haemagglutination of guinea pig red blood cells. Both bacteria and red blood cells (RBCs) were washed 3 times in ice-cold PBS (17 mM K/NaH2PO4, 150 mM NaCl). PBS was used for all dilutions. 96-well round-bottom microtiter plates were used for the dilutions. The titer for agglutination was determined in a 2-fold dilution series in PBS of the bacteria in a volume of 25 μL. Well 1 is a negative control without bacteria but 25 μL PBS. 25 μL PBS and 50 μL 5% RBCs were added to a final 100 μL volume. Upon 1 hour at 4° C., the titer was determined as the lowest concentration of bacteria that led to haemagglutination.\nA bacterial concentration of twice the determined haemagglutination titer was kept constant in the haemagglutination inhibition assays. First, a 2-fold dilution series of the inhibitory compounds was performed in 25 μL PBS. Instead, in well 1 only 25 μL PBS was added as a negative control. 25 μL of the bacterial solution and 50 μl of 5% red blood cells were added to reach a final volume of 100 μL."}, "[2]": {"target": "T1, monovalent lectin domain of FimH (Escherichia coli, UniProt P08191)", "T1 construct": "with the monovalent lectin domain of FimH were measured using isothermal calorimetry (ITC)", "T1 sequence (P08191 22-179)": "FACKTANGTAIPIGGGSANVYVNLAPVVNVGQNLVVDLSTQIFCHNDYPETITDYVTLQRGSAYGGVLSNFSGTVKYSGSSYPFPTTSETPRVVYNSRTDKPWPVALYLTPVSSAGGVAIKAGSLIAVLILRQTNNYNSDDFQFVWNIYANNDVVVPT", "format": "binding"}, "[3]": {"tested_on": "E. coli strain UTI89 expressing type-1 fimbriae", "experiment": "Bacterial crosslinking, epi-fluorescence microscopy", "format": "cell-based, Escherichia coli", "conditions": "acridin orange colored UTI89", "description": "The possibility to capture living bacteria in solution with β-CD-based glycol-clusters 2 and 4, using epi-fluorescence microscopy was investigated.\nIt was decided to evaluate if the FimH aggregation evidenced in ITC, DLS and SAXS could also occur when the lectin is attached at the tip of the bacteria pili. E. coli strain UTI89 expressing type-1 fimbriae. Said bacteria were diluted from the culture medium into PBS and glyco-conjugated in a ten-fold dilution series of 2 or 4 were added. Bacterial cells were then colored with acridin orange.\n100 μl of glycoconjugate-agglutinated E. coli were washed in 1 ml PBS, resuspended in 200 μl 0.1% acridin orange and left at room temperature for 2.5 hours. The bacterial cells were washed again in 1 ml PBS to remove unbound acridin orange. A microscope glass was rinsed with 100% EtOH and next dried at the air."}, "[4]": {"tested_on": "E. coli strain UTI89 in the bladder of C3H/HeN mice", "experiment": "In vivo inhibition in the murine cystitis model (instillation with UTI89)", "description": "In vivo inhibition was evaluated by instilling 1-4 together with the UTI89 strain via a catheter in the bladder of C3H/HeN mice. […] A group of ten animals was used for each concentration of antagonists. […] The animals were sacrificed at a 6 h post infection time.\nA murine model of urinary tract infection was used to test the ability of the compounds to inhibit the colonization of UTI89 in the bladder [Hung C. S.; Dodson, K. W., Hultgren S. J. Nat. Protoc. 2009, 4, 1230-1243 and Wellens A.; Garofalo C.; Nguyen H.; Van Gerven N.; Slättegård R.; Hernalsteens, J.-P.; Wyns, L.; Oscarson, S.; De Greve H.; Hultgren S. J.; Bouckaert, J. PLoS ONE 2008, 3, e2040]. The solution with high concentration of compounds was added to the resuspension of UTI89 before given to the mice. The eight-week old Female C3H/HeN mice (Harlan, Horst, The Netherlands) were anesthetized and infected via transurethral catheterization of 10^7 CFU UTI89 in solution in PBS, or in PBS with the compound in the mentioned concentration. The mice were sacrificed at 24 hours post infection and the bladders were harvested, homogenized and resuspended in PBS. The serial dilutions were spot on LB medium agar plates. The bacterial load was determined by counting the CFU recovered from the bladder. The animal experiments were approved by the Ethical Committer for Animal Experiments of Vrije Universiteit Brussel and complied with all relevant national legislation and institutional policies. The Mann-Whitney test was applied for the comparison of the data obtained from the untreated group and inhibition group in GraphPad Prism version 5.1 and two tailed P value were shown (GraphPad software).\nA limited number of papers described the in vivo efficiency of anti-adhesive mannosides to treat UTIs."}, "[5]": {"tested_on": "AIEC LF82 bacteria in colonic loops of CEABAC10 mice expressing human CEACAM6", "experiment": "Adhesion assay in colonic loops of CEABAC10 mice", "format": "in vivo", "conditions": "dose of 0.1 μmol, 4 h incubation", "description": "E. coli strain LF82 was isolated from a chronic ileal lesion of a patient with Crohn's disease (CD). Bacteria were grown routinely in Luria-Bertani (LB) broth overnight at 37° C.\nThe transgenic mouse model CEABAC10 expressing the human CEACAM6 protein is available in the UMR Inserm/Université d'Auvergne 1071 led by Professor Arlette Darfeuille-Michaud at Clermont-Ferrand. This model is particularly suitable to reproduce the abnormal colonization by AIEC bacteria through the interaction with CEACAM6 molecules that were observed abnormally expressed in the ileal mucosa of Crohn's disease patients.\nThree colonic loops were realized in anesthetized CEABAC10 mice. A volume of 100 μl of a bacterial suspension containing 6×10^6 bacteria/mL with or without inhibitory compound was injected into the loops (here, compound 2, example 1) or heptyl-mannose at a concentration of 100 μM). After an incubation period of 4 h, mice were euthanized and each loop was longitudinally opened, extensively washed and homogenized to numerate adherent LF82 bacteria. Bacterial adhesion was expressed as percentages of residual adhesion (100% corresponds to the adhesion in absence of any compound)."}, "FimH [6]": {"target": "T2, FimH (Escherichia coli, UniProt P08191)", "T2 sequence (P08191 22-300)": "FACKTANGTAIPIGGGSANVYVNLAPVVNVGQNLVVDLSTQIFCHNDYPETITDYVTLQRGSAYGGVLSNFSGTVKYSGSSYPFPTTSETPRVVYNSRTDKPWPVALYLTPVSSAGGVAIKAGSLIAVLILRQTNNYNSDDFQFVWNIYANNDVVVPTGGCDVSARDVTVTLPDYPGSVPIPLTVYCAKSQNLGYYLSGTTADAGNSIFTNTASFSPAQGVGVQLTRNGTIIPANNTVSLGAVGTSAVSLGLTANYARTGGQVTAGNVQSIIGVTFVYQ", "conditions": "Surface Plasmon Resonance (SPR); read-out: Dissociation constant of the HM-FimH complex; cited from earlier work"}, "FimH [7]": {"target": "T2, FimH", "conditions": "Isothermal Titration calorimetry (ITC); read-out: Dissociation constant of the HM-FimH complex; cited from earlier work"}},
  "note": "Values joined by “and” are separate entries in the source; they are usually repeats but may differ in a detail not shown here. Equal entries are not always repeated. Where two headings read alike, the source gives them in different places.",
  "data": [
    {"smiles": "OCC1OC(OCCCCCCCOCc2cn(CC3OC4OC5C(Cn6cc(COCCCCCCCOC7OC(CO)C(O)C(O)C7O)nn6)OC(OC6C(Cn7cc(COCCCCCCCOC8OC(CO)C(O)C(O)C8O)nn7)OC(OC7C(Cn8cc(COCCCCCCCOC9OC(CO)C(O)C(O)C9O)nn8)OC(OC8C(Cn9cc(COCCCCCCCOC%10OC(CO)C(O)C(O)C%10O)nn9)OC(OC9C(Cn%10cc(COCCCCCCCOC%11OC(CO)C(O)C(O)C%11O)nn%10)OC(OC%10C(Cn%11cc(COCCCCCCCOC%12OC(CO)C(O)C(O)C%12O)nn%11)OC(OC3C(O)C4O)C(O)C%10O)C(O)C9O)C(O)C8O)C(O)C7O)C(O)C6O)C(O)C5O)nn2)C(O)C(O)C1O", "note": "(centres unmarked) [Compound 2]", "values": [
      {"measurement": "MIC", "setting": "[1]; Escherichia coli, UTI89 1.2 10^9 CFU/ml", "result": 1.56, "unit": "µM"},
      {"measurement": "MIC", "setting": "[1]; Escherichia coli, UTI89 1.4 10^8 CFU/ml", "result": 0.39, "unit": "µM"},
      {"measurement": "MIC", "setting": "[1]; Escherichia coli, UTI89 7 10^7 CFU/ml", "result": 0.24, "unit": "µM"},
      {"measurement": "Relative inhibitory potency (RIP), reference 1", "setting": "[1]; RIP (UTI89 1.2 10^9 CFU/ml)", "result": ">128"},
      {"measurement": "Relative inhibitory potency (RIP), reference HM", "setting": "[1]; RIP (UTI89 1.2 10^9 CFU/ml)", "result": 8},
      {"measurement": "Relative inhibitory potency (RIP), reference 1", "setting": "[1]; RIP (UTI89 1.4 10^8 CFU/ml)", "result": 256},
      {"measurement": "Relative inhibitory potency (RIP), reference HM", "setting": "[1]; RIP (UTI89 1.4 10^8 CFU/ml)", "result": 3},
      {"measurement": "Relative inhibitory potency (RIP), reference 1", "setting": "[1]; RIP (UTI89 7 10^7 CFU/ml)", "result": 263},
      {"measurement": "Relative inhibitory potency (RIP), reference HM", "setting": "[1]; RIP (UTI89 7 10^7 CFU/ml)", "result": 4},
      {"measurement": "Affinity of FimH for the ligand (in words)", "setting": "[2]; ITC", "result": "nanomolar affinities"},
      {"measurement": "Molar ratio n meas", "setting": "[2]; normal (direct) titration", "result": 0.12},
      {"measurement": "ΔG°", "setting": "[2]; normal (direct) titration", "result": -10.5, "unit": "kcal/mol"},
      {"measurement": "ΔH°", "setting": "[2]; normal (direct) titration", "result": -77.5, "unit": "kcal/mol"},
      {"measurement": "ΔS°", "setting": "[2]; normal (direct) titration", "result": "−227", "unit": "cal/mol/deg"},
      {"measurement": "Kd", "setting": "[2]; normal (direct) titration, compound injected into FimH", "result": 18.2, "unit": "nM"},
      {"measurement": "Molar ratio n meas", "setting": "[2]; reverse titration", "result": "3 and 3.01"},
      {"measurement": "ΔG°", "setting": "[2]; reverse titration", "result": -11.6, "unit": "kcal/mol"},
      {"measurement": "ΔH°", "setting": "[2]; reverse titration", "result": -19.2, "unit": "kcal/mol"},
      {"measurement": "ΔS°", "setting": "[2]; reverse titration", "result": "−25.9", "unit": "cal/mol/deg"},
      {"measurement": "Kd", "setting": "[2]; reverse titration, FimH injected into compound", "result": "2.86 nM and 2.9 nM"},
      {"measurement": "Bacterial clustering in solution", "setting": "[3]", "result": "formation of bacterial clusters"},
      {"measurement": "Bacterial reduction compared with monovalent 1 and 3 at 1 mM", "setting": "[4]; 10 μM (1.8 and 2.5 μg)", "result": "equivalent bacterial reduction"},
      {"measurement": "Reduction of urinary tract infection", "setting": "[4]; around 2 μg instilled in the mouse bladder, after 24 h", "result": "significantly reduced the urinary tract infection"},
      {"measurement": "Bacterial adhesion in colonic loops compared with no inhibitor", "setting": "[5]", "result": "two-fold decreased adhesion"}
    ]},
    {"smiles": "CCCCCCCO[C@H]1O[C@H](CO)[C@@H](O)[C@H](O)[C@@H]1O", "note": "[HM, Heptylmannoside, reference compound]", "values": [
      {"measurement": "Relative inhibitory potency (RIP), reference 1", "setting": "[1]; RIP (UTI89 1.2 10^9 CFU/ml)", "result": ">16"},
      {"measurement": "Relative inhibitory potency (RIP), reference 3", "setting": "[1]; RIP (UTI89 1.2 10^9 CFU/ml)", "result": 16},
      {"measurement": "Relative inhibitory potency (RIP), reference 1", "setting": "[1]; RIP (UTI89 1.4 10^8 CFU/ml)", "result": 67},
      {"measurement": "Relative inhibitory potency (RIP), reference 3", "setting": "[1]; RIP (UTI89 1.4 10^8 CFU/ml)", "result": 33},
      {"measurement": "Relative inhibitory potency (RIP), reference 1", "setting": "[1]; RIP (UTI89 7 10^7 CFU/ml)", "result": 64},
      {"measurement": "Relative inhibitory potency (RIP), reference 3", "setting": "[1]; RIP (UTI89 7 10^7 CFU/ml)", "result": 32},
      {"measurement": "MIC", "setting": "[1]; UTI89 1.2 10^9 CFU/ml", "result": 12.5, "unit": "µM"},
      {"measurement": "MIC", "setting": "[1]; UTI89 1.4 10^8 CFU/ml", "result": 1.50, "unit": "µM"},
      {"measurement": "MIC", "setting": "[1]; UTI89 7 10^7 CFU/ml", "result": 0.98, "unit": "µM"},
      {"measurement": "Kd", "setting": "FimH [6]", "result": 5, "unit": "nM"},
      {"measurement": "Kd", "setting": "FimH [7]", "result": 7, "unit": "nM"}
    ]}
  ]
}
